# Experimental data published in patent publication US20260062412A1, “NITROGEN-CONTAINING HETEROCYCLIC COMPOUND HAVING MYT1 INHIBITORY ACTIVITY” (CHUGAI SEIYAKU KABUSHIKI KAISHA, priority 2023, published 2026).
# pIC50: −log10 of the molar value. Where a name gives a salt, the structure may show the parent alone.
# Molecular target: MYT1 protein (Homo sapiens (Human), UniProt Q99640)
# Assay: Test for binding to ATP binding site of MYT1 (Kinase Tracer 178 / Eu-Anti-GST antibody TR-FRET)
# Details: ATP binding site of MYT1, 30 minutes at room temperature
# Chain of MYT1 protein (Q99640 whole entry): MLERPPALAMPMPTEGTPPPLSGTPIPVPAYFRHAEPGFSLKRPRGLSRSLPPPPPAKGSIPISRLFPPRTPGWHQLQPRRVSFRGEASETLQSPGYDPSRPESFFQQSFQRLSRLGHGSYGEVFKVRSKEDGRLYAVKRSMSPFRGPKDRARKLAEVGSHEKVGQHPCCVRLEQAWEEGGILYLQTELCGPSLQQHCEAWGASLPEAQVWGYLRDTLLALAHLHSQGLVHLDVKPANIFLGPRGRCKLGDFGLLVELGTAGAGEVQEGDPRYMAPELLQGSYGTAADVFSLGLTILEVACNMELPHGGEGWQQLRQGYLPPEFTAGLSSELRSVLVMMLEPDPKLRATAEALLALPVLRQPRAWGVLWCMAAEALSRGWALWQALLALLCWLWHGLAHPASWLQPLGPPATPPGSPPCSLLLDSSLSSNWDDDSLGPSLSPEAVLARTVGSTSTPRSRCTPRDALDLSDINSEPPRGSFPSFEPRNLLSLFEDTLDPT
row,Structure (SMILES),pIC50
1,"Cc1ccc2c(ccc3c(-c4ccc(F)c5[nH]ncc45)c(N)c(=O)[nH]c32)n1 [Compound C183, 3-Amino-4-(7-fluoro-1H-indazol-4-yl)-8-methyl-1H-1,7-phenanthrolin-2-one]",6.96
2,"Nc1c(-c2ccc(F)c3[nH]ncc23)c2cc(N3CCN4CCOC[C@@H]4C3)c3cccnc3c2[nH]c1=O [Compound D13, 6-[(9aS)-3,4,6,7,9,9a-hexahydro-1H-pyrazino[2,1-c][1,4]oxazin-8-yl]-3-amino-4-(7-fluoro-1H-indazol-4-yl)-1H-1,10-phenanthrolin-2-one]",7.60
3,"Nc1c(-c2ccc(F)c3[nH]ncc23)c2cc(C3CC4(CC4)C3)c3ncccc3c2[nH]c1=O [Compound C175, 3-Amino-4-(7-fluoro-1H-indazol-4-yl)-6-spiro[2.3]hexan-5-yl-1H-1,7-phenanthrolin-2-one]",7.80
4,"C=Cc1cc(Cl)cc2c(-c3ccc(Cl)c4[nH]ncc34)c(N)c(=O)[nH]c12 [Compound A23, 3-Amino-6-chloro-4-(7-chloro-1H-indazol-4-yl)-8-ethenyl-1H-quinolin-2-one]",7.47
5,"Nc1c(-c2ccnc3[nH]ncc23)c2cc(C3CC3)c3ncccc3c2[nH]c1=O [Compound C82, 3-Amino-6-cyclopropyl-4-(1H-pyrazolo[3,4-b]pyridin-4-yl)-1H-1,7-phenanthrolin-2-one]",7.96
6,"N#Cc1cc2c(-c3ccc(C#N)c4[nH]ncc34)c(N)c(=O)[nH]c2c2cccnc12 [Compound C149, 3-Amino-4-(7-cyano-1H-indazol-4-yl)-2-oxo-1H-1,7-phenanthroline-6-carbonitrile]",6.42
7,"Nc1c(-c2cccnc2)c2cc(Cl)ccc2[nH]c1=O [Compound A45, 3-Amino-6-chloro-4-pyridin-3-yl-1H-quinolin-2-one]",5.30
8,"Nc1c(-c2ccncc2)c2cc(Cl)ccc2[nH]c1=O [Compound A44, 3-Amino-6-chloro-4-pyridin-4-yl-1H-quinolin-2-one]",5.30
9,"Nc1c(-c2ccc(F)c3[nH]ncc23)c2cc(N3CCCC3)c3ncccc3c2[nH]c1=O [Compound C113, 3-Amino-4-(7-fluoro-1H-indazol-4-yl)-6-pyrrolidin-1-yl-1H-1,7-phenanthrolin-2-one]",8.34
10,"Nc1c(-c2cc(F)c(F)c3[nH]ncc23)c2cc(OC(F)(F)F)c3ncccc3c2[nH]c1=O [Compound C72, 3-Amino-4-(6,7-difluoro-1H-indazol-4-yl)-6-(trifluoromethoxy)-1H-1,7-phenanthrolin-2-one]",8.21
11,"CC(C)(C)OC(=O)N1CC(c2cc3c(-c4ccc(F)c5[nH]ncc45)c(N)c(=O)[nH]c3c3cccnc23)C1 [Compound C97, tert-Butyl 3-[3-amino-4-(7-fluoro-1H-indazol-4-yl)-2-oxo-1H-1,7-phenanthrolin-6-yl]azetidine-1-carboxylate]",7.66
12,"N#Cc1cc2[nH]c(=O)c(N)c(-c3ccc(Cl)c4[nH]ncc34)c2cc1Cl [Compound A29, 3-Amino-6-chloro-4-(7-chloro-1H-indazol-4-yl)-2-oxo-1H-quinoline-7-carbonitrile]",7.54
13,"Nc1c(-c2ccc3cn[nH]c3c2)c2cc(Cl)ccc2[nH]c1=O [Compound A49, 3-Amino-6-chloro-4-(1H-indazol-6-yl)-1H-quinolin-2-one]",6.10
14,"CC(C)(C)c1cc2c(-c3ccc(F)c4[nH]ncc34)c(N)c(=O)[nH]c2c2cccnc12 [Compound C225, 3-Amino-6-(tert-butyl)-4-(7-fluoro-1H-indazol-4-yl)-1H-1,7-phenanthrolin-2-one]",6.00
15,"CCc1cc2[nH]c(=O)c(N)c(-c3ccc(Cl)c4[nH]ncc34)c2cc1Cl [Compound A28, 3-Amino-6-chloro-4-(7-chloro-1H-indazol-4-yl)-7-ethyl-1H-quinolin-2-one]",7.33
16,"Cc1ccc2[nH]ncc2c1-c1c(N)c(=O)[nH]c2ccc(Cl)cc12 [Compound A63, 3-Amino-6-chloro-4-(5-methyl-1H-indazol-4-yl)-1H-quinolin-2-one]",6.15
17,"CC1(C)CC2(CC(c3cc4c(-c5ccc(F)c6[nH]ncc56)c(N)c(=O)[nH]c4c4cccnc34)C2)C1 [Compound C174, 3-Amino-6-(2,2-dimethylspiro[3,3]heptan-6-yl)-4-(7-fluoro-1H-indazol-4-yl)-1H-1,7-one]",6.85
18,"C#Cc1cc(Cl)cc2c(-c3ccc(Cl)c4[nH]ncc34)c(N)c(=O)[nH]c12 [Compound A18, 3-Amino-6-chloro-4-(7-chloro-1H-indazol-4-yl)-8-ethynyl-1H-quinolin-2-one]",7.06
19,"CC(C)(COc1cc2c(-c3ccc(F)c4[nH]ncc34)c(N)c(=O)[nH]c2c2cccnc12)C(F)(F)F [Compound C59, 3-Amino-4-(7-fluoro-1H-indazol-4-yl)-6-(3,3,3-trifluoro-2,2-dimethylpropoxy)-1H-1,7-one]",8.28
20,"Nc1c(-c2ccc(F)c3[nH]ncc23)c2cc(C3CC3)c3ncsc3c2[nH]c1=O [Compound K3, 7-Amino-4-cyclopropyl-6-(7-fluoro-1H-indazol-4-yl)-9H-[1,3]thiazolo[4,5-h]quinolin-8-one]",7.30

# The next compounds have a higher pIC50 than those just listed; values first:
row,pIC50,Structure (SMILES)
1,8.41,"C=Cc1cc2c(-c3ccc(F)c4[nH]ncc34)c(N)c(=O)[nH]c2c2cccnc12 [Compound C89, 3-Amino-6-ethenyl-4-(7-fluoro-1H-indazol-4-yl)-1H-1,7-phenanthrolin-2-one]"
2,8.42,"Nc1c(-c2ccc(Cl)c3[nH]ncc23)c2cc(O[C@H]3C[C@H](F)C3)c(F)cc2[nH]c1=O [Compound A4, 3-Amino-4-(7-chloro-1H-indazol-4-yl)-7-fluoro-6-((1r,3r)-3-fluorocyclobutyl)oxy-1H-quinolin-2-one]"
3,8.46,"Nc1c(-c2ccc(F)c3[nH]ncc23)c2cc(C3CC3)c3cncnc3c2[nH]c1=O [Compound J3, 8-Amino-5-cyclopropyl-7-(7-fluoro-1H-indazol-4-yl)-10H-pyrido[3,2-h]quinazolin-9-one]"
4,8.46,"CC(C)Oc1cc2c(-c3ccc(F)c4[nH]ncc34)c(N)c(=O)[nH]c2c2ccc(=O)[nH]c12 [Compound T5, 3-Amino-4-(7-fluoro-1H-indazol-4-yl)-6-propan-2-yloxy-1,7-dihydro-1,7-phenanthroline-2,8-dione]"
5,8.48,"Nc1c(-c2ccc(F)c3[nH]ncc23)c2cc(CC(F)F)c3ncccc3c2[nH]c1=O [Compound C170, 3-Amino-6-(2,2-difluoroethyl)-4-(7-fluoro-1H-indazol-4-yl)-1H-1,7-phenanthrolin-2-one]"
6,8.51,"Nc1c(-c2ccc(F)c3[nH]ncc23)c2cc(C3CC3(F)F)c3ncccc3c2[nH]c1=O (stereo not drawn) [Compound C145, 3-Amino-6-(2,2-difluorocyclopropyl)-4-(7-fluoro-1H-indazol-4-yl)-1H-1,7-phenanthrolin-2-one]"
7,8.52,"Nc1c(-c2ccc(Cl)c3[nH]ncc23)c2cc(OCCCF)c(F)cc2[nH]c1=O [Compound A6, 3-Amino-4-(7-chloro-1H-indazol-4-yl)-7-fluoro-6-(3-fluoropropoxy)-1H-quinolin-2-one]"
8,8.54,"CN1CCC(c2cc3c(-c4ccc(F)c5[nH]ncc45)c(N)c(=O)[nH]c3c3ncccc23)CC1 [Compound D22, 3-Amino-4-(7-fluoro-1H-indazol-4-yl)-6-(1-methylpiperidin-4-yl)-1H-1,10-phenanthrolin-2-one]"
9,8.64,"Nc1c(-c2ccc(F)c3[nH]ncc23)c2cc(C3CCOC3)c3ncccc3c2[nH]c1=O (stereo not drawn) [Compound C159, 3-Amino-4-(7-fluoro-1H-indazol-4-yl)-6-(oxolan-3-yl)-1H-1,7-phenanthrolin-2-one]"
10,8.64,"Nc1c(-c2ccc(F)c3[nH]ncc23)c2cc(N3CC4(COC4)C3)c3ncccc3c2[nH]c1=O [Compound C118, 3-Amino-4-(7-fluoro-1H-indazol-4-yl)-6-(2-oxa-6-azaspiro[3,3]heptan-6-yl)-1H-1,7-one]"
11,8.68,"Nc1c(-c2cc(F)c(F)c3[nH]ncc23)c2cc(N3CCOCC3)c3ncccc3c2[nH]c1=O [Compound C208, 3-Amino-4-(6,7-difluoro-1H-indazol-4-yl)-6-morpholin-4-yl-1H-1,7-phenanthrolin-2-one]"
12,8.68,"N#CC1CC(c2cc3c(-c4ccc(F)c5[nH]ncc45)c(N)c(=O)[nH]c3c3cccnc23)C1 (stereo not drawn) [Compound C176, 3-[3-Amino-4-(7-fluoro-1H-indazol-4-yl)-2-oxo-1H-1,7-phenanthrolin-6-yl]cyclobutane-1-carbonitrile]"
13,8.77,"Nc1c(-c2cc(F)c(F)c3[nH]ncc23)c2cc(OCC3(F)CC3)c3ncccc3c2[nH]c1=O [Compound C71, 3-Amino-4-(6,7-difluoro-1H-indazol-4-yl)-6-[(1-fluorocyclopropyl)methoxy]-1H-1,7-one]"
14,8.77,"Nc1c(-c2ccc(F)c3[nH]ncc23)c2cc(C3CCNCC3)c3ncccc3c2[nH]c1=O [Compound C133, 3-Amino-4-(7-fluoro-1H-indazol-4-yl)-6-piperidin-4-yl-1H-1,7-phenanthrolin-2-one; hydrochloride]"
15,8.77,"Nc1c(-c2ccc(F)c3[nH]ncc23)c2cc(C3CNC3)c3cccnc3c2[nH]c1=O [Compound D28, 3-Amino-6-(azetidin-3-yl)-4-(7-fluoro-1H-indazol-4-yl)-1H-1,10-phenanthrolin-2-one]"
16,8.85,"Cc1cc2c(-c3c(F)cc(F)c4[nH]ncc34)c(N)c(=O)[nH]c2c2cccnc12 [Compound C222, 3-Amino-4-(5,7-difluoro-1H-indazol-4-yl)-6-methyl-1H-1,7-phenanthrolin-2-one]"
17,8.85,"Nc1c(-c2cc(F)c(F)c3[nH]ncc23)c2cc(OCC(F)F)c3ncccc3c2[nH]c1=O [Compound C68, 3-Amino-6-(2,2-difluoroethoxy)-4-(6,7-difluoro-1H-indazol-4-yl)-1H-1,7-phenanthrolin-2-one]"
18,8.89,"Nc1c(-c2cc(F)c(F)c3[nH]ncc23)c2cc(O[C@H]3C[C@H](F)C3)c3ncccc3c2[nH]c1=O [Compound C210, 3-Amino-4-(6,7-difluoro-1H-indazol-4-yl)-6-((1r,3r)-3-fluorocyclobutyl)oxy-1H-1,7-phenanthrolin-2-one]"
19,9.16,"CC[C@@H](C)Oc1cc2c(-c3ccc(F)c4[nH]ncc34)c(N)c(=O)[nH]c2c2nccnc12 [Compound G14, 8-Amino-5-[(2R)-butan-2-yl]oxy-7-(7-fluoro-1H-indazol-4-yl)-10H-pyrido[2,3-f]quinoxalin-9-one]"
